The values below come from patent US20250250308A1, “METHODS AND COMPOSITIONS WITH ANTIFUNGAL ACTIVITY” (priority 2022, published 2025).

The test system of series [1] is C. albicans. Description: Mouse OPC (oropharyngeal candidiasis) model. It counts as in vivo. How it is done: Mouse OPC model. The efficacy of EntV fragments were tested in the OPC model as described (Graham et al., 2017; Solis and Filler, 2012). Mice were immunosuppressed by injecting 225 mg/kg cortisone acetate subcutaneously 1 d before inoculation, and subsequently on days 1 and 3 of the infection. Group size was 6-8. To prepare the inoculum, 1 ml of C. albicans (SC5314) overnight culture grown at 30° C. in YPD broth was washed twice in PBS before resuspension in sterile Hanks' balanced salt solution (HBSS) at a concentration of 1×10^6 cells/mL. Calcium alginate swabs were soaked in this inoculum for 5 minutes prior to inoculation. Mice were anesthetized using ketamine and xylazine and placed on pre-warmed isothermal pads and the swabs were placed sublingually for 75 min. Mice were given additional doses of ketamine (50 mg/kg), as necessary. After inoculation, mice were given drinking water with EntV fragments or DMSO (0.01%) in the drinking water ad libitum. Mice were euthanized at 5 d after inoculation, unless noted. The tongues were excised and cut in half laterally for tissue histology and assessment of fungal burden.
For tissue histology the tongue sample was placed in 10% zinc-buffered formalin overnight and stored in 80% ethanol, before embedding in paraffin. For each tongue, 5 μm sections were prepared using a Leica microtome and stained using Periodic Acid-Schiff (PAS) stain. Epithelial invasion was measured from 40× images taken of the entire tissue section of each tongue half with the total area of epithelium and infected epithelium were measured using ImageJ (version 1.6). Measurements were totaled and expressed as a percentage of total infected epithelium relative to the entire epithelial area (Graham et al., 2017; Moyes et al., 2016).
For examination of fungal burden, qPCR was used by amplifying a 269-bp fragment of the internal transcribed spacer 2 (ITS2) between the 5.8S and 28S ribosomal RNA genes of C. albicans (Graham et al., 2017; Khot et al., 2009). DNA was extracted from homogenized tongue tissue using the Yeast DNA Extraction Kit (Thermo Scientific) according to the protocol with minor modifications. The ITS2 fragment was amplified by qPCR was performed with a CFX96 Real-Time System with a C1000 Touch thermal cycler (BioRad). C. albicans gDNA was quantified using FastStart Universal SYBR Green master mix with ROX (Roche). To screen for contamination and background fluorescence during the qPCR amplification, no template controls were used.

Series [2] has as its system C. albicans. Briefly: Intravenous (disseminated candidiasis) infection model, survival. In kind it is in vivo, mouse. As to conditions: C. albicans pre-incubated with 100 nM for two hours prior to IV injection. From the text:
The wild-type 12-mer is protective in a systemic mouse model of C. albicans infection. Systemic bloodstream infections by C. albicans are the most life-threatening to patients. Mortality rates from disseminated candidiasis exceed 40% and new treatments are in dire need. Since EntV impairs hyphal morphogenesis and biofilm formation rather than killing C. albicans (Graham et al., 2017), it was unclear if EntV and EntV derivatives would be protective in a systemic infection model. To increase the chances of observing an effect, C. albicans were pre-incubated with 100 nM of EntV or the 12-mer for two hours prior to intravenous (IV) injection of 1×10^5 CFU. […] The median survival of animals injected with C. albicans alone was 7.5 days and all animals had expired by 11 days.
Intravenous infection model. The disseminated candidiasis model was performed as described (Miramon and Lorenz, 2016; Williams and Lorenz, 2020). C. albicans SC5314 was grown overnight in YPD at 30° C., then diluted to a very low concentration and grown in a second overnight. The late-log phase culture was collected by centrifugation, washed in PBS, and diluted to 5×10^6 cells/ml in PBS containing vehicle (0.01% DMSO) or 100 nM EntV or the 12-mer peptide and incubated for 2 hours at room temperature. […] Animals were monitored at least twice daily for 21 days for signs of moribundity.

In series [3] the test system is Lactobacillus sakei ATCC 15521. Description: Lactobacillus MIC assay (growth in liquid culture). It counts as cell-based. How it is done: FIG. 8: EntV fragments have no inhibitory activity against Lactobacillus sakei. L. sakei was cultured in Lactobacilli MRS broth overnight and diluted 1/10 into fresh medium to which EntV and EntV fragments were added at various concentrations. After 24 hours of growth at 30° C., the OD625 readings were taken.
Lactobacillus MIC Assay. For this assay, Lactobacillus sakei ATCC 15521 (Torriani et al., 1996) was used following the methodology as described with a few modifications (Chang et al., 2011). Briefly L. sakei was grown in Lactobacilli MRS broth (Difco, Detroit, MI, USA) for 18 h at 30° C. without agitation (Malheiros et al., 2015). Following adjustment to a concentration of 1×10^6 cells/ml, cells were diluted 1:10 into fresh MRS medium containing the indicated concentrations of EntV fragments. After 24 hours of growth at 30° C. without agitation, OD625 readings were taken using a BioTek Cytation5 plate reader. Readings of blanks (containing fresh MRS medium) were subtracted from sample wells. Three technical replicates were averaged, and the experiment was repeated three times.

Series [4] has as its system human cells. As to conditions: cited from earlier work.
The subject of series [5] is mouse cells. The conditions noted are these: cited from earlier work.
For series [6], the system named is C. albicans. Briefly: Growth of C. albicans in shaking cultures. It counts as cell-based. How it is done: These shorter peptides are no longer bacteriocins, having separated the antifungal and antibacterial activities. Furthermore, despite its robust protection against infection, EntV is not toxic to C. albicans. Growth of C. albicans was unaffected when EntV was added to shaking cultures in concentrations as high as 30 μM

[7] abbreviates: 10 nM and 1 nM in drinking water.
Setting [8] is: 100 nM in drinking water for 5 days following inoculation.
The mark [9] stands for this setting: 100 nM starting at day three, sacrificed on day five.

Entries after “also recorded” stand apart in the source; their conditions may differ.

VAGQLALWAVQC [12aa]: in series [1] (setting [7]), the Epithelial invasion result is reported as “the reduction in invasion remains dramatic” and the “Fungal burden on the tongue” value was “only a slight reduction in fungal burden on the tongue”. Besides, in series [1] (50 nM in drinking water), the Fungal burden entry is reported as “loss of efficacy in terms of fungal burden” and the Hyphal invasion entry is “still a significant lowering of hyphal invasion”. Further, the “Hyphal invasion relative to fluconazole” value in series [1] (100 nM and 500 nM vs. 4 μg/mL fluconazole) is listed as “slightly less prevalent”. Besides, the “Fungal burden in the tongue (C. albicans DNA by qPCR)” value in series [1] (setting [8]) is “equally effective”. For the same molecule, the “Hyphal (epithelial) invasion of the tongue” value in series [1] (100 nM in drinking water for 5 days following inoculation, listed as 12-mer) is reported as “at least as effective as the full length EntV; also recorded: most reduced”. Also, in series [1] (setting [9]), the “Fungal burden, treatment of established infection” value is “significantly less fungal burden compared to both groups of untreated animals” and the “Hyphal invasion, treatment of established infection” value is “The same patterns were observed”. Besides, the “Fungal burden relative to fluconazole” value in series [1] (100 nM vs. 4 μg/mL fluconazole, day 5) is reported as “even more effective at reducing fungal burden than 4 μg/mL fluconazole”. Moreover, the “Animals alive at end of experiment (day 22)” value in series [2] is given as “about half the animals were still alive”. The “Antibacterial (bacteriocin) activity against L. sakei” value in series [3] (various concentrations, 24 hours) is on record as “no longer had bacteriocin activity”.

B1: EntV: 68 amino acid active C-terminal form of the E. faecalis bacteriocin EntV (SEQ ID NO: 14) (protein, listed as Enterococcus faecalis)
chain: LGSCVANKIKDEFFAMISISAIVKAAQKKAWKELAVTVLRFAKANGLKTNAIIVAGQLALWAVQCGLS
For the molecule B1, the “Toxicity to human cells” value in series [4] is “no toxicity”. Also, the “Fungal burden in the tongue (C. albicans DNA by qPCR)” value in series [1] (setting [8]) was “significantly reduced the fungal burden”. Moreover, in series [2], the “Animals alive at end of experiment (day 22)” value was “about half the animals were still alive”. In addition, the “Lowest concentration abrogating growth of L. sakei” value in series [3] (liquid culture, 24 hours at 30° C., OD625) was at most 10 nM. For the same molecule, the “Toxicity to mouse cells” value in series [5] is “no toxicity”. The “Highest concentration at which growth of C. albicans was unaffected” value in series [6] is at least 30 µM.
